According to PMC10823733, “Promising antibacterial efficacy of arenicin peptides against the emerging opportunistic pathogen Mycobacterium abscessus” (Journal of Biomedical Science, 2024):
Like-named read-outs stand apart in the source and are kept apart here. Positions of bridges follow the written chain, without caps; N, C: chain ends. Non-standard residues stand in square brackets, D forms with d. Residues, ends and D or L forms follow the SMILES beside them. Abu = CC[C@H](N)C(=O)O

Columns and labels:
[1] = format: cell-based, human
Protocol: (§1) The toxicity of each peptide was evaluated on human cell lines using a resazurin assay as previously described. Human lung epithelial cells BEAS-2B (ATCC CRL-9609), liver cells HepG2 (ATCC HB-8065), and kidney cells A498 (ATCC HTB-44) were used. All cells were cultured in Dulbecco's modified essential medium (DMEM) supplemented with 10% heat-inactivated fetal calf serum (FBS, Thermo Fisher Scientific), and 1% L-glutamine (Thermo Fisher Scientific) (DMEM^FBS) at 37 °C in a 5% CO2 incubator to subconfluent concentrations. Cells were detached with trypsin–EDTA solution (Thermo Fisher Scientific), and around 1 × 10^4 cells/well were seeded in 96-well flat-bottom microplates (Greiner Bio-One) with a lid, and cultured for additional 48–72 h at 37 °C and 5% CO2 until cell confluence. The medium was removed, and 100 µL of serial two-fold dilutions of the peptides in DMEM^FBS were added to each well. Following a 48 h-incubation period at 37 °C and 5% CO2, cell viability was evaluated using the resazurin assay as described above. Fluorescence of the resazurin metabolite resorufin (λex/λem = 530/590 nm) was measured after 2 h incubation at 37 °C and 5% CO2 in the dark, with a microplate reader (Biotek, Synergy Mx, Colmar, France). The cytotoxic concentration of peptide leading to 50% cell death as compared to the control was defined as the CC50, and was determined by fitting the RFU% sigmoidal dose–response curves in Kaleidagraph 4.2 software (Synergy Software). All experiments were conducted in triplicate.

[2] = format: cell-based, human; remark: listed apart in the source
Protocol: as §1

A498 cells = assay: Cytotoxic assay on human cells (resazurin); format: cell-based
Protocol: as §1

human erythrocytes = format: cell-based; conditions: for HC10 / HC50: red cells of human, 1 h
Protocol: The hemolytic activity of each peptide was determined as previously described. Briefly, human erythrocytes (red blood cells, hRBC; Divbioscience, Ulvenhout, Netherlands) were washed 2-times with sterile phosphate buffered saline (PBS; Thermo Fisher Scientific) and pelleted by centrifugation at 800 rpm for 5 min; then resuspended in DMEM^FBS to a final erythrocyte concentration of 8% (v/v). Then, 100 µL of this hRBC solution was distributed to each well of sterile 96-well flat-bottom microplates (Greiner Bio-One) containing serial two-fold dilutions of arenicin, arenicin-Abu derivative or controls in DMEM^FBS to a final volume of 200 µL. After 1 h incubation at 37 °C, microplates were centrifuged at 800 rpm for 5 min. Then, 100 µL of supernatant were carefully transferred to a new 96-well microplate, and OD405 corresponding to the release of hemoglobin was measured using a microplate reader (Biotek, Synergy Mx, Colmar, France). DMEM^FBS and Triton-X100 at 0.1% (v/v) were used as negative (i.e., 0% hemolysis) and positive (i.e., 100% hemolysis) controls, respectively. The concentration of peptide leading to 10% and 50% of hemolysis compared to the positive control was defined as the HC10 and HC50, respectively, and was determined by fitting the dose–response curves in Kaleidagraph 4.2 software (Synergy Software). All experiments were done in triplicate.

M. abscessus S and R = format: cell-based, Mycobacterium abscessus
Protocol: Mycobacterium abscessus S and R strains (CIP 104536^ T) were grown in Middlebrook 7H9 medium supplemented with 0.05% (v/v) Tween 80, 0.2% (v/v) glycerol and 10% (v/v) oleic acid–albumin–dextrose–catalase (OADC enrichment; BD Difco) (7H9-S^OADC) at 37 °C under stirring (200 rpm). We used Ar-1 (RWC^3VYAYVRVRGVLVRYRRC^20W) and Ar-1-Abu, in which the cysteines in position 3 and 20 were replaced by alpha-amino-n-butyric acid (Abu) residues. […]
For determining the antimicrobial activity of the different peptides, the Middlebrook 7H9 broth microdilution method was used in sterile 96-well flat-bottom Greiner Bio-One polypropylene microplates with lid (Thermo Fisher Scientific) using the resazurin microtiter assay (REMA). […] Fluorescence of the metabolite resorufin (λex/λem = 530/590 nm) was measured using a Tecan Spark 10 M ™ multimode microplate reader (Tecan Group Ltd, France). Relative fluorescence units (RFU) were defined as: RFU% = (test well FU/mean FU of control B wells) × 100. MIC50 and MIC90 values were determined by fitting the RFU% sigmoidal dose–response curves in Kaleidagraph 4.2 software (Synergy Software, Reading, PA). […]

M. abscessus R = assay: Induction of resistance assay; format: cell-based, Mycobacterium abscessus; conditions: after 20–30 days of exposure
Protocol: (§2) Induction of bacterial resistance by Ar-1 was achieved by exposure of M. abscessus S and R to Ar-1 or to the control antibiotic clarithromycin (CLR) for 42 consecutive days, and with repeated broth microdilution susceptibility testing and subsequent MIC determination. After each MIC determination, the well containing the highest concentration of Ar-1 or CLR that allows bacterial growth was diluted 1:1000 in 7H9-S^OADC and used as inoculum for the next MIC assay with fresh amounts of Ar-1 or CLR.

M. abscessus S = assay: Induction of resistance assay; format: cell-based, Mycobacterium abscessus; conditions: after 20–30 days of exposure
Protocol: as §2

SMILES | CC50 [1] [µM] | CC50 [2] [µM] | toxicity towards kidney A498 cells (in words) (A498 cells) | hemolytic activity on human erythrocytes (in words, considering HC10) (human erythrocytes) | HC10 (human erythrocytes) [µM] | HC50 (human erythrocytes) [µM] | mean MIC50 (M. abscessus S and R) [µM] | increase in MIC90 values (M. abscessus R) [fold] | increase in MIC90 values (M. abscessus S) [fold]
CC[C@H](NC(=O)[C@H](CCCNC(=N)N)NC(=O)[C@H](CCCNC(=N)N)NC(=O)[C@H](Cc1ccc(O)cc1)NC(=O)[C@H](CCCNC(=N)N)NC(=O)[C@@H](NC(=O)[C@H](CC(C)C)NC(=O)[C@@H](NC(=O)CNC(=O)[C@H](CCCNC(=N)N)NC(=O)[C@@H](NC(=O)[C@H](CCCNC(=N)N)NC(=O)[C@@H](NC(=O)[C@H](Cc1ccc(O)cc1)NC(=O)[C@H](C)NC(=O)[C@H](Cc1ccc(O)cc1)NC(=O)[C@@H](NC(=O)[C@H](CC)NC(=O)[C@H](Cc1c[nH]c2ccccc12)NC(=O)[C@@H](N)CCCNC(=N)N)C(C)C)C(C)C)C(C)C)C(C)C)C(C)C)C(=O)N[C@@H](Cc1c[nH]c2ccccc12)C(=O)O [Ar-1-Abu] (H-RW[Abu]VYAYVRVRGVLVRYRR[Abu]W-OH) | > 100 | > 100 | nontoxic | totally inactive | > 100 | > 100 | – | – | –
CC(C)C[C@@H]1NC(=O)[C@H](C(C)C)NC(=O)CNC(=O)[C@H](CCCNC(=N)N)NC(=O)[C@H](C(C)C)NC(=O)[C@H](CCCNC(=N)N)NC(=O)[C@H](C(C)C)NC(=O)[C@H](Cc2ccc(O)cc2)NC(=O)[C@H](C)NC(=O)[C@H](Cc2ccc(O)cc2)NC(=O)[C@H](C(C)C)NC(=O)[C@@H](NC(=O)[C@H](Cc2c[nH]c3ccccc23)NC(=O)[C@@H](N)CCCNC(=N)N)CSSC[C@@H](C(=O)N[C@@H](Cc2c[nH]c3ccccc23)C(=O)O)NC(=O)[C@H](CCCNC(=N)N)NC(=O)[C@H](CCCNC(=N)N)NC(=O)[C@H](Cc2ccc(O)cc2)NC(=O)[C@H](CCCNC(=N)N)NC(=O)[C@H](C(C)C)NC1=O [Ar-1] (H-RWCVYAYVRVRGVLVRYRRCW-OH; disulfide 3-20) | > 100 | > 100 | nontoxic | – | 20.2 ± 1.8 | > 100 | 11.5 ± 1.0 | – | –
CC[C@H]1OC(=O)[C@H](C)[C@@H](O[C@H]2C[C@@](C)(OC)[C@@H](O)[C@H](C)O2)[C@H](C)[C@@H](O[C@@H]2O[C@H](C)C[C@H](N(C)C)[C@H]2O)[C@](C)(OC)C[C@@H](C)C(=O)[C@H](C)[C@@H](O)[C@]1(C)O [CLR, clarithromycin] | – | – | – | – | – | – | – | 32 | 32
